Earlier results, collected in patent US5180744A, “Aralkyl-N-terminal amino hydroxy” (G. D. Searle & Co., priority 1991, dated 1993).
Square brackets hold non-standard residues; d marks the D form. Peptide text beside a SMILES is read from it. * marks the point of attachment. Sta = CC(C)C[C@H](N)[C@@H](O)CC(=O)O; Isovaleryl = CC(C)CC(=O)*

System: hog renin
Details: after the injection of hog renin into nephrectomized rats

## CC(C)CC(=O)N[C@H](C(=O)N[C@H](C(=O)N[C@@H](CC(C)C)[C@@H](O)CC(=O)N[C@@H](C)C(=O)N[C@@H](CC(C)C)[C@@H](O)CC(=O)O)C(C)C)C(C)C [pepstatin] (Isovaleryl-VV[Sta]A[Sta]-OH)
  blood pressure in vivo: reduce blood pressure in vivo
